{
  "source": "patent US20070099250A1",
  "about": "“Methods for treating proliferative diseases and for monitoring the effectiveness of treatment of proliferative diseases” (priority 2003, published 2007)",
  "key": {"[1]": {"tested_on": "Heat-shock 110 kD protein", "assay": "Inverse labeling-MS phosphopeptide analysis of HCT116 cell lysate treated with BPMI", "type": "cell-based, human", "conditions": "HCT116 cells, 20 μM BPMI, 1.5 hours; phosphopeptide IEpSPKLER", "method": "(§1) Human colorectal cell line HCT116 cells are grown in 6-well plates. Prior to harvesting, the cells are treated with 20 μM of the Raf inhibitor BPMI and DMSO control for 1.5 hours, respectively. Cells are then rinsed with PBS, and lysed for 5 minutes at 4° C. in Doriano lysis buffer with 100 μg/mL Perfabloc/2 μg/mL aprotinin/2 μg/mL leupeptin/1 mM NaVO4/10 mM NaF. The supernatant of the lysates are collected after centrifugation at 3,000 rpm for 5 minutes. The protein concentration is determined using Bio-Rad reagent, and the lysates are frozen at −80° C. prior to fkrther processing and analysis.\n(§2) One μL of RNase A (20 mg/mL, Sigma, St Louis, Mo.) and 1 μL of RNase T1 (10 units/mL, Invitrogen, Carlsbad, Calif.) are added to each 1 mL of lysates (total 3 mg of HCT116-DMSO control and 3 mg of HCT116-BPMI, respectively), and incubated at 37° C. for half an hour to degrade RNAs. Proteins are denatured using 6 M guanidine HCl, followed by reduction with 20 mM 1,4-dithio-DL-threitol (DTT) at 58° C. for 40 minutes and alkylation with 40 mM iodoacetamide at room temperature for 30 minutes in the dark. Each protein solution is transferred to a Slide-A-Lyzer (10,000 MW cutoff, Pierce, Rockford, IL) dialysis cassette and dialyzed against 2 to 0 M urea/50 mM ammonium bicarbonate to remove small molecule impurities and buffer exchange to 50 mM ammonium bicarbonate. Proteolysis is carried out using modified, sequencing grade trypsin (Promega, Madison, Wiss.) at a 1:200 trypsin-to-protein ratio (wt:wt) in 50 mM ammonium bicarbonate at 37° C. overnight.\n(§3) The peptide digests are filtered through Centricon Filters (10,000 MW cutoff, Millipore, Bedford, Mass.) to remove large molecule impurities including detergents. Flow-through (peptides) is collected. Solvent and ammonium bicarbonate are subsequently removed by SpeedVac drying.\n(§4) d0- or d3-methanolic HCl (2M) (methyl esterification reagent) is prepared by adding 160 μL of acetyl chloride to 1 niL of anhydrous d0-methyl alcohol or d3-methyl d-alcohol drop wise while stirring. After 10 minutes, 1 mL of the methyl esterification reagent is added to 1.5 mg of lyophilized peptide mixture. The reaction is performed in parallel to two identical aliquots for every sample, one using d0-reagent and one using d3-reagent, respectively. The reaction is allowed to proceed at room temperature for 30 minutes. The excess reagents are removed by SpeedVac drying. Subsequently the peptide mixtures are reconstituted with water. The inverse labeling is achieved by mixing d0-control with d3-treated (BPMI) and d3-control with d0-treated.\n(§5) Enrichment of phosphopeptides is performed on a 2.1×30 mm IMAC column (POROS 20 MC, Applied Biosystems, Foster City, Calif.). Briefly, the column is washed with water, 100 mM EDTA in 1 M NaCl, followed by water and 1% acetic acid. The column is then activated with 100 mM FeCl3. […] of the inversely labeled methyl esterified peptide mixture (500 μg each form of d0 and d3) is dissolved in 1% acetic acid in 50% acetonitrile/water, and loaded onto iron-activated IMAC column. The unbound peptides are removed by washing with 1% acetic acid in 50% acetonitrile/water. The bound phosphopeptides are eluted with 2% ammonium hydroxide in 50% acetonitrile/water (pH approximately 9 to 10). Acetic acid is added to neutralize the eluent prior to SpeedVac drying. The phosphopeptide mixture is reconstituted with 0.1% formic acid and analyzed using capillary LC/MS, as described below.\n(§6) An Ultimate capillary/nano HPLC system (LC Packings, San Francisco, Calif.) with a Swichos micro column-switching module (LC Packings, San Francisco, Calif.) is used for analysis. Separation is carried out on a 0.18×150 mm capillary column, packed with 3 μm C18 stationary phase of 300-Å pore size (PepMap, LC Packings, San Francisco, Calif.), operating at a flow rate of 2 μL/min. Mobile phase A consists of 0.1% (v/v) formic acid in water and mobile phase B of 0.1% (v/v) formic acid in acetonitrile. […]"}, "Oncoprotein 18 [2]": {"tested_on": "Oncoprotein 18", "assay": "Inverse labeling-MS phosphopeptide analysis of HCT116 cell lysate treated with BPMI", "type": "cell-based, human", "conditions": "for Change (treated/control) in phosphorylation / Change in phosphorylation, % down: HCT116 cells, 20 μM BPMI, 1.5 hours", "method": "as §1, §2, §3, §4, §5, §6"}, "Oncogene EMS1 [3]": {"tested_on": "Oncogene EMS1", "assay": "Inverse labeling-MS phosphopeptide analysis of HCT116 cell lysate treated with BPMI", "type": "cell-based, human", "conditions": "HCT116 cells, 20 μM BPMI, 1.5 hours", "method": "as §1, §2, §3, §4, §5, §6"}, "[4]": {"tested_on": "MAPK pathway in HCT116 cells", "assay": "Inhibition of MAPK pathway in HCT116 cells", "type": "cell-based, human", "method": "(§7) The treatment of HCT116 cells with BPMI leads to the inhibition of OP18 phosphorylation at Ser^25 residue (data not shown). […] Additional data also provides that BPMI inhibits OP18 Ser^25 phosphorylation with an IC50 of approximately 5 μM. Thus, it appears that both MAPK and OP18 Ser^25 phosphorylation are inhibited at a similar level for a given dose of a raf inhibitor."}, "Oncoprotein 18 [5]": {"tested_on": "Oncoprotein 18", "assay": "Inverse labeling-MS analysis of DU145 tumor tissue lysates, mouse tumor xenograft, in vivo BPMI", "conditions": "for Change (treated/control) in phosphorylation / Change in phosphorylation, % down: DU145 tumor tissue, 1 hour BPMI treatment, 200 mg/kg p.o.", "method": "(§8) The phosphoproteome mapping method is further tested/applied to an in vivo study of the Raf inhibitor, BPMI (one-hour treatment, 200 mg/kg p.o.), in the analysis of tissue lysates of mouse tumor xenograft.\n(§9) The methyl esterification/IMAC procedure is successful in removing the blood contamination from the tissue samples. […] Additional changes in phosphorylation are also detected which includes oncogene EMS1, mouse fetuin and Epithelial-cadherin (see Table 2)."}, "Oncogene EMS1 [6]": {"tested_on": "Oncogene EMS1", "assay": "Inverse labeling-MS analysis of DU145 tumor tissue lysates, mouse tumor xenograft, in vivo BPMI", "conditions": "1 hour BPMI treatment, 200 mg/kg p.o.", "method": "as §8, §9"}, "[7]": {"tested_on": "Epithelial-cadherin (mouse/human)", "assay": "Inverse labeling-MS analysis of DU145 tumor tissue lysates, mouse tumor xenograft, in vivo BPMI", "conditions": "1 hour BPMI treatment, 200 mg/kg p.o., phosphopeptide MRDWVIPPIpSCPENEK", "method": "as §8, §9"}, "Mouse fetuin": {"tested_on": "Mouse fetuin", "assay": "Inverse labeling-MS analysis of DU145 tumor tissue lysates, mouse tumor xenograft, in vivo BPMI", "conditions": "1 hour BPMI treatment, 200 mg/kg p.o., phosphopeptide VoxMHTQCHSTPDpSAEDVR", "method": "as §8, §9"}, "[8]": {"tested_on": "OP18 Ser25 phosphorylation", "assay": "Western blot analysis of Raf-inhibitor-treated HCT116 cell lysates, phospho-Ser25 specific OP18 antibody", "type": "cell-based, human", "method": "HCT1 16 cells are prepared. as in Example 1 above and treated with a Raf inhibitor (BPMI) for 1.5 hr. Cells are lysed in Incomplete Laemmli buffer (0.1 IM Tris.Cl pH 7.0, 4% SDS, 10% glycerol), and passed through a syringe fitted with 25 gauge needle to break apart genomic DNA. The lysate is boiled for 5 minutes, and loaded onto 10% SDS-PAGE gel. Proteins in the SDS-PAGE gel are then transferred to nitrocellulose membrane. The membrane is blocked with 5% milk for 1 hr, and incubated with the an antibody specific for Ser^25 phosphorylated OP18 for an additional hour. The phosphor-Ser^25 specific OP18 antibody is raised in rabbit using standard techniques and purification known in the art. The amino acid sequence used to generate phosphor-Ser^25 specific OP18 antibody is ELILpSPRSKESVPEFP (SEQ ID NO:_). The blot is washed three times with TBST 15 minutes each, and then incubated with anti-rabbit HRP-conjugated antibody for 1 hr. The blot is washed three times with TBST 15 minutes each, and the antibody bound proteins are labeled using SuperSignal West Dura Extended Duration substrate (Piece Biotechnologies, Rockford, Ill.). The phosphorylated OP18 proteins are detected via exposing the blot through a film (Eastman Kodak, Rochester, N.Y.).\nas §7"}, "[9]": {"conditions": "phosphopeptide LPS*pSPVYEDAASFK"}, "[10]": {"conditions": "phosphopeptide T*QpTPPVpSPAPQPTEER"}},
  "data": [
    {"smiles": "CC(C)(C)c1ccc(Nc2ncc(Cc3ccncc3)c3ccccc23)cc1", "note": "[BPMI, 1-(4-t-butylanilino)-4-[(pyridin-4-yl)-methyl]-isoguinoline]", "values": [
      {"measurement": "Change (treated/control) in phosphorylation", "setting": "[1]", "value": 0.7},
      {"measurement": "Change in phosphorylation, % down", "setting": "[1]", "value": "(30% down)"},
      {"measurement": "Op18 Ser25 phosphorylation upon BPMI treatment (FIG. 1)", "setting": "Oncoprotein 18 [2]; HCT116 cell lysate, inverse labeling-MS", "value": "Down-regulation"},
      {"measurement": "Change (treated/control) in phosphorylation", "setting": "Oncoprotein 18 [2]; phosphopeptide ASGQAFELILpSPR", "value": 0.4},
      {"measurement": "Change in phosphorylation, % down", "setting": "Oncoprotein 18 [2]; phosphopeptide ASGQAFELILpSPR", "value": "(60% down)"},
      {"measurement": "Change (treated/control) in phosphorylation", "setting": "Oncoprotein 18 [2]; phosphopeptide SKESVPEFPLpSPPK", "value": 0.6},
      {"measurement": "Change in phosphorylation, % down", "setting": "Oncoprotein 18 [2]; phosphopeptide SKESVPEFPLpSPPK", "value": "(40% down)"},
      {"measurement": "Change (treated/control) in phosphorylation", "setting": "Oncogene EMS1 [3]; [9]", "value": 0.8},
      {"measurement": "Change in phosphorylation, % down", "setting": "Oncogene EMS1 [3]; [9]", "value": "(20% down)"},
      {"measurement": "Change (treated/control) in phosphorylation", "setting": "Oncogene EMS1 [3]; [10]", "value": 0.7},
      {"measurement": "Change in phosphorylation, % down", "setting": "Oncogene EMS1 [3]; [10]", "value": "(30% down)"},
      {"measurement": "IC50", "setting": "[4]", "value": 5.3, "unit": "µM"},
      {"measurement": "Change (treated/control) in phosphorylation", "setting": "Oncoprotein 18 [5]; phosphopeptide ASGQAFELILpSPR", "value": 0.4},
      {"measurement": "Change in phosphorylation, % down", "setting": "Oncoprotein 18 [5]; phosphopeptide ASGQAFELILpSPR", "value": "(60% down)"},
      {"measurement": "Change (treated/control) in phosphorylation", "setting": "Oncoprotein 18 [5]; phosphopeptide SKESVPEFPLpSPPK", "value": 0.8},
      {"measurement": "Change in phosphorylation, % down", "setting": "Oncoprotein 18 [5]; phosphopeptide SKESVPEFPLpSPPK", "value": "(20% down)"},
      {"measurement": "OP18 Ser25 phosphorylation in vivo (FIG. 2B)", "setting": "Oncoprotein 18 [5]; tumor tissue DU145, methyl esterification/IMAC", "value": "down-regulation"},
      {"measurement": "Change (treated/control) in phosphorylation", "setting": "Oncogene EMS1 [6]; [9]", "value": 0.7},
      {"measurement": "Change in phosphorylation, % down", "setting": "Oncogene EMS1 [6]; [9]", "value": "(30% down)"},
      {"measurement": "Change (treated/control) in phosphorylation", "setting": "Oncogene EMS1 [6]; [10]", "value": 0.6},
      {"measurement": "Change in phosphorylation, % down", "setting": "Oncogene EMS1 [6]; [10]", "value": "(40% down)"},
      {"measurement": "Change (treated/control) in phosphorylation", "setting": "[7]", "value": 0.5},
      {"measurement": "Change in phosphorylation, % down", "setting": "[7]", "value": "(50% down)"},
      {"measurement": "Change (treated/control) in phosphorylation", "setting": "Mouse fetuin", "value": 0.6},
      {"measurement": "Change in phosphorylation, % down", "setting": "Mouse fetuin", "value": "(40% down)"},
      {"measurement": "OP18 phosphorylation at Ser25 residue, Western blot", "setting": "[8]; HCT116 cells, 1.5 hr treatment (data not shown)", "value": "inhibition"},
      {"measurement": "Phosphorylation seen at Ser25 residue of the OP18 protein, Western blot", "setting": "[8]; HCT116 cells, at 10 μM", "value": "almost no phosphorylation"},
      {"measurement": "IC50", "setting": "[8]; additional data, read-out: IC50 for inhibition of OP18 Ser25 phosphorylation", "value": "~5", "unit": "µM"}
    ]}
  ]
}
